Reference: EPA's ToxValDB 9.5 (doi:10.2903/j.efsa.2006.85r)
Converted amounts (≈) assume the structure as drawn.

Assays:
Typhlodromus pyri = test: LR50; higher = less toxic; settings: not reported; mortality
Apis mellifera = settings: acute; duration: 48 hours; oral; unspecified; mortality
Lepomis macrochirus = settings: acute; duration: 96 hours; mortality
Tagia sp. = settings: acute; duration: 14 days; mortality
Daphnia magna = settings: chronic/long-term; duration: 21 days
Pimephales promelas = settings: chronic/long-term; duration: 34 days; growth
Canidae = settings: oral, Dog Other, clinical chemistry

## CCOP(=S)(OCC)Oc1cc(C)nc(C(C)C)n1 [Diazinon]
Typhlodromus pyri
  LR50: 0.153 g/ha
Apis mellifera
  LD50: 0.09 µg/piece
Anas platyrhynchos; acute, oral, unspecified, mortality
  LD50: 1.44 mg/kg
Anas platyrhynchos; reproductive
  NOEL: 1.2 mg/kg-day
Anas platyrhynchos; short-term, duration: 8 days, oral, feed, mortality
  LC50: 8 mg/kg-day
Lepomis macrochirus
  LC50: 0.27 µg/mL (≈ 0.887 µM)
Tagia sp.
  LC50: 65 mg/kg
  NOEL: 6.15 mg/kg
Daphnia magna
  NOEC: 0.00017 mg/L
Pimephales promelas
  NOEC: 0.092 mg/L
Canidae; chronic, duration: 52 weeks
  NOAEL: 0.02 mg/kg-day
Canidae; subchronic, duration: 90 days
  NOAEL: 0.02 mg/kg-day
Rattus norvegicus; acute, oral, clinical chemistry
  NOAEL: 2.5 mg/kg-day
Rattus norvegicus; acute, oral, mortality
  LD50: 1130 mg/kg-day
Rattus norvegicus; reproduction developmental, reproduction
  NOEC: 0.65 mg/kg-day
